Here are results for four compounds from patent publication US4473578A, “β-Lactam antibiotics and their use” (Beecham Group Limited, priority 1979, dated 1984).

What all share (assay): MIC in agar
Format in all cases: cell-based

For one test, the system named is Bacillus subtilis A. To be noted: for MIC: Bacillus subtilis. The source says: (§1) a. Antibacterial effectiveness of compounds of
(§2) Examples 6 and 7 in agar.
(§3) (μg/ml) in agar of compound

For the next test, the system named is Citrobacter freundii E8.
Excerpt: as §1, §2, §3

The next test relates to Enterobacter cloacae N1.
Excerpt: as §1, §2, §3

The subject of another test is Escherichia coli 0111.
Excerpt: as §1, §2, §3

The next test deals with Escherichia coli JT39.
Excerpt: as §1, §2, §3

Another test concerns Klebsiella aerogenes A.
Excerpt: as §1, §2, §3

The subject of the next test is Proteus mirabilis C977.
Excerpt: as §1, §2, §3

The test system of a further test is Proteus morganii 1580. To be noted: for MIC: Morganella morganii.
Excerpt: as §1, §2, §3

A further test deals with Proteus rettgeri WM16. To be noted: for MIC: Providencia rettgeri.
Excerpt: as §1, §2, §3

A further test has as its system Proteus vulgaris W091.
Excerpt: as §1, §2, §3

The subject of a further test is Pseudomonas aeruginosa A.
Excerpt: as §1, §2, §3

In test [1] the test system is Salmonella typhimurium CT10. To be noted: for MIC: Salmonella enterica.
Excerpt: as §1, §2, §3

Another test has as its system Serratia marcescens US20.
Excerpt: as §1, §2, §3

The subject of a further test is Shigella sonnei MB 11967. To be noted: for MIC: MB11967.
Excerpt: as §1, §2, §3

The test system of test [2] is Staphylococcus aureus 1517.
Excerpt: as §1, §2, §3

Test [3] has as its system Staphylococcus aureus Oxford.
Excerpt: as §1, §2, §3

Test [4] relates to Staphylococcus aureus Russell.
Excerpt: as §1, §2, §3

Another test concerns Streptococcus faecalis I. To be noted: for MIC: Enterococcus faecalis.
Excerpt: as §1, §2, §3

The next test has as its system E. coli ESS. To be noted: Escherichia coli. The text has this: | (μg/ml) in agar of compound
Test [5] has as its system Streptococcus pyogenes CN10.
Excerpt: as §1, §2, §3

[6] abbreviates: in agar, Citrobacter freundii E8, read-out: M.I.C.
[7] abbreviates: in agar, Enterobacter cloacae N1, read-out: M.I.C.
The mark [8] stands for this setting: in agar, Escherichia coli JT39, read-out: M.I.C.
The mark [9] stands for this setting: in agar, Klebsiella aerogenes A, read-out: M.I.C.
Setting [10] is: in agar, Proteus mirabilis C977, read-out: M.I.C.
Setting [11] is: in agar, Proteus morganii 1580, read-out: M.I.C.
Setting [12] is: in agar, Proteus rettgeri WM16, read-out: M.I.C.
Where [13] appears, read: in agar, Proteus vulgaris W091, read-out: M.I.C.
The mark [14] stands for this setting: in agar, Pseudomonas aeruginosa A, read-out: M.I.C.
[15] abbreviates: in agar, Salmonella typhimurium CT10, read-out: M.I.C.
Setting [16] is: in agar, Serratia marcescens US20, read-out: M.I.C.
The mark [17] stands for this setting: in agar, Staphylococcus aureus 1517, read-out: M.I.C.
Where [18] appears, read: in agar, Staphylococcus aureus Oxford, read-out: M.I.C.
The mark [19] stands for this setting: in agar, Staphylococcus aureus Russell, read-out: M.I.C.
[20] abbreviates: in agar, Streptococcus faecalis I, read-out: M.I.C.

Converted amounts (≈) assume the structure as drawn. Where a name gives a salt, the structure may show the parent alone. Read-outs that look alike come from different tables or passages of the source.

Take `C[C@H](OS(=O)(=O)O)[C@@H]1C(=O)N2C(C(=O)O)=C(S/C=C\C(=O)O)C[C@H]12` [Example 22, The Trisodium salt of (5R,6R)-3-[(Z)-2-carboxyethenylthio]-6-[(S)-1-hydroxysulphonyloxyethyl]-7-oxo-1-azabicyclo[3.2.0]hept-2-ene-2-carboxylic acid]: the MIC came out at 0.5 µg/mL against Bacillus subtilis A; 25 µg/mL with Citrobacter freundii E8 (setting [6]); 0.5 µg/mL in the test with Enterobacter cloacae N1 (setting [7]); 1.2 µg/mL against Escherichia coli 0111; 1.2 µg/mL with Escherichia coli JT39 (setting [8]); 1.2 µg/mL in the test with Klebsiella aerogenes A (setting [9]). Also, the MIC was 1.2 µg/mL with Proteus mirabilis C977 (setting [10]); 0.5 µg/mL in the test with Proteus morganii 1580 (setting [11]); 1.2 µg/mL with Proteus rettgeri WM16 (setting [12]); 1.2 µg/mL with Proteus vulgaris W091 (setting [13]); > 50 µg/mL with Pseudomonas aeruginosa A (setting [14]); 1.2 µg/mL in test [1] (setting [15]). The MIC in the test on Serratia marcescens US20 (setting [16]) was found to be 5 µg/mL; in the test on Shigella sonnei MB 11967 it was 1.2 µg/mL; in [2] (setting [17]) it was 25 µg/mL; in test [3] (setting [18]), 2.5 µg/mL; in [4] (setting [19]), 2.5 µg/mL; with Streptococcus faecalis I (setting [20]), 12.5 µg/mL. Also, the MIC against E. coli ESS was 1.2 µg/mL.
In the case of `CCSC1=C(C(=O)[O-])N2C(=O)[C@H]([C@H](C)O)[C@H]2C1.[Na+]` [Example 7], the M.I.C. stood at 5.0 µg/mL with Bacillus subtilis A (in agar, Bacillus subtilis A); 2.5 µg/mL with Citrobacter freundii E8 (in agar, Citrobacter freundii E8); 5.0 µg/mL in the test with Enterobacter cloacae N1 (in agar, Enterobacter cloacae N1); 5.0 µg/mL in the test with Escherichia coli 0111; 2.5 µg/mL in the test with Escherichia coli JT39 (in agar, Escherichia coli JT39); 2.5 µg/mL with Klebsiella aerogenes A (in agar, Klebsiella aerogenes A). For the same compound, the M.I.C. in the test on Proteus mirabilis C977 (in agar, Proteus mirabilis C977) was 12.5 µg/mL; in the test on Proteus morganii 1580 (in agar, Proteus morganii 1580), 2.5 µg/mL; in the test with Proteus rettgeri WM16 (in agar, Proteus rettgeri WM16), 5.0 µg/mL; in the test on Proteus vulgaris W091 (in agar, Proteus vulgaris W091) it was 5.0 µg/mL; in the test on Pseudomonas aeruginosa A (in agar, Pseudomonas aeruginosa A), > 50 µg/mL; in test [1] (in agar, Salmonella typhimurium CT10), 2.5 µg/mL. Further, the M.I.C. was 5.0 µg/mL in the test with Serratia marcescens US20 (in agar, Serratia marcescens US20); 5.0 µg/mL in the test on Shigella sonnei MB 11967; 1.2 µg/mL in test [3] (in agar, Staphylococcus aureus Oxford); 1.2 µg/mL in test [4] (in agar, Staphylococcus aureus Russell); > 50 µg/mL in the test on Streptococcus faecalis I (in agar, Streptococcus faecalis I); 1.2 µg/mL in [5] (in agar, Streptococcus pyogenes CN10).
In the case of `CSC1=C(C(=O)[O-])N2C(=O)[C@H]([C@H](C)O)[C@H]2C1.[Na+]` [Example 6, Sodium (5R, 6S)-3-methylthio-6-[(S)-1-hydroxyethyl]-7-oxo-1-azabicyclo[3.2.0]hept-2-ene-2-carboxylate], the MIC with Bacillus subtilis A worked out at 25 µg/mL; in the test on Citrobacter freundii E8 (Citrobacter freundii, E8), 12.5 µg/mL; against Enterobacter cloacae N1 (Enterobacter cloacae, N1), 28 µg/mL; against Escherichia coli 0111, 12.5 µg/mL; against Escherichia coli JT39 (Escherichia coli, JT39), 12.5 µg/mL; in the test with Klebsiella aerogenes A (Klebsiella aerogenes), 12.5 µg/mL. For the same compound, the MIC in the test on Proteus mirabilis C977 (Proteus mirabilis, C977) is 50 µg/mL; with Proteus morganii 1580 (1580) it was 25 µg/mL; against Proteus rettgeri WM16 (WM16), 25 µg/mL; in the test with Proteus vulgaris W091 (Proteus vulgaris, W091) it was 25 µg/mL; in the test on Pseudomonas aeruginosa A (Pseudomonas aeruginosa), > 100 µg/mL; in test [1] (TYPHIMURIUM), 12.5 µg/mL. The MIC in the test on Serratia marcescens US20 (Serratia marcescens, US20) was 12.5 µg/mL; against Shigella sonnei MB 11967 it was 12.5 µg/mL; in test [2] (Staphylococcus aureus, 1517), 100 µg/mL; in test [3] (Staphylococcus aureus) it was 3.1 µg/mL; in test [4] (Staphylococcus aureus) it was 6.2 µg/mL; against Streptococcus faecalis I it was > 100 µg/mL. The MIC in [5] (Streptococcus pyogenes, CN10) stood at 25 µg/mL.
Turning to `C[C@H](O)[C@H]1C(=O)N2C(C(=O)O)=C(S/C=C\C(=O)OCCN)C[C@H]12` [Example 18, (5R,6S)-3-[2-(Z)-(2-Aminoethoxycarbonyl)ethenylthio]-6-[(S)-1-hydroxyethyl]-7-oxo-1-azabicyclo[3.2.0]hept-2-ene-2-carboxylic acid], the MIC with Citrobacter freundii E8 (setting [6]) was found to be 3.1 µg/mL (≈ 9.05 µM); with Enterobacter cloacae N1 (setting [7]) it was 3.1 µg/mL (≈ 9.05 µM); with Escherichia coli 0111, 3.1 µg/mL (≈ 9.05 µM); in the test on Escherichia coli JT39 (setting [8]), 3.1 µg/mL (≈ 9.05 µM); in the test with Klebsiella aerogenes A (setting [9]), 3.1 µg/mL (≈ 9.05 µM); with Proteus mirabilis C977 (setting [10]), 12.5 µg/mL (≈ 36.5 µM). For the same compound, the MIC in the test with Proteus morganii 1580 (setting [11]) was 3.1 µg/mL (≈ 9.05 µM); with Proteus rettgeri WM16 (setting [12]), 6.2 µg/mL (≈ 18.1 µM); in the test on Proteus vulgaris W091 (setting [13]) it was 6.2 µg/mL (≈ 18.1 µM); in the test on Pseudomonas aeruginosa A (setting [14]), 25 µg/mL (≈ 73 µM); in [1] (setting [15]) it was 3.1 µg/mL (≈ 9.05 µM); with Serratia marcescens US20 (setting [16]), 1.2 µg/mL (≈ 3.5 µM). Further, the MIC against Shigella sonnei MB 11967 was 3.1 µg/mL (≈ 9.05 µM); in test [2] (setting [17]), 6.2 µg/mL (≈ 18.1 µM); in test [3] (setting [18]), ≤ 0.1 µg/mL; in test [4] (setting [19]) it was 0.4 µg/mL (≈ 1.17 µM); in the test with Streptococcus faecalis I (setting [20]) it was 12.5 µg/mL (≈ 36.5 µM); in test [5] (in agar, Streptococcus pyogenes CN10, read-out: M.I.C.), ≤ 0.1 µg/mL. Moreover, in the test with E. coli ESS, the MIC worked out at 1 µg/mL (≈ 2.92 µM).
